The source of these data is patent US20250250230A1, “HETEROCYCLIC COMPOUND” (TAKEDA PHARMACEUTICAL COMPANY LIMITED, priority 2022, published 2025).

The target of the experiment is T1, human orexin type 2 receptor (Homo sapiens, UniProt O43614).
T1 construct: expressed in transfected cells
T1 sequence (O43614 1-444): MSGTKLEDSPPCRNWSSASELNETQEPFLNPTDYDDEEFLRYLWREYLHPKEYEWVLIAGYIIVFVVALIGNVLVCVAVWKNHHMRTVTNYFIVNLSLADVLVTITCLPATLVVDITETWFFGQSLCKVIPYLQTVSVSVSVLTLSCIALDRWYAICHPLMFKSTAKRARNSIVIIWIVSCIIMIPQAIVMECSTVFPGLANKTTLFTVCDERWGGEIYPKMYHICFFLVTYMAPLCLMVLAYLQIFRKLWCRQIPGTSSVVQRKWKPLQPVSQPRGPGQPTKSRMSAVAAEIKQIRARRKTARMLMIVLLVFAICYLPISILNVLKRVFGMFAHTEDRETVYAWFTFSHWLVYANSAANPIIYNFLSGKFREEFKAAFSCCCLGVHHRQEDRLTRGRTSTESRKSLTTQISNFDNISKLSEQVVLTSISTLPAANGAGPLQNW
As to the kind of experiment: Measurement of orexin type 2 receptor agonist activity (calcium fluorescence, Fluo-4 AM, FDSS). Format: cell-based. To be noted: test compound 3 μM; CHO cells expressing human OX2 receptor; DMSO = 0%, orexin A (human) = 100%. The procedure, abridged: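 CHO-K1 cells stably expressing human OX2R were loaded with Fluo-4 AM (30 min 37 °C, 30 min RT) in HEPES-buffered HBSS with 0.1% BSA and probenecid. Calcium fluorescence was followed on FDSS for 2 min after compound addition; activity normalised to DMSO (0%) and 10 nM orexin A (100%).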

As for `CS(=O)(=O)NC1CCN(C(=O)C2CC2c2c(F)cccc2-c2ccccc2F)C1` (racemic) [Example 188, a mixture of rac-N-{(3R)-1-[(1R,2R)-2-(2′,3-difluoro[1,1′-biphenyl]-2-yl)cyclopropane-1-carbonyl]pyrrolidin-3-yl}methanesulfonamide and rac-N-{(3S)-1-[(1R,2R)-2-(2′,3-difluoro[1,1′-biphenyl]-2-yl)cyclopropane-1-carbonyl]pyrrolidin-3-yl}methanesulfonamide], the “OX2R agonist activity (3 μM, %)” value is 86%.
The result for `CS(=O)(=O)NC1CCCN(C(=O)C2CC2c2ncccc2-c2c(F)cccc2F)C1` (racemic) [Example 189, a mixture of rac-N-[(3R)-1-{(1R,2R)-2-[3-(2,6-difluorophenyl)pyridin-2-yl]cyclopropane-1-carbonyl}piperidin-3-yl]methanesulfonamide and rac-N-[(3S)-1-{(1R,2R)-2-[3-(2,6-difluorophenyl)pyridin-2-yl]cyclopropane-1-carbonyl}piperidin-3-yl]methanesulfonamide] reads 67%; that for `O=C(C1CC1c1ccccc1-c1c(F)cccc1F)N1CC[C@H](NS(=O)(=O)CF)C1` (mixture of isomers) [Example 202, a mixture of rac-N-{(3S)-1-[(1R,2R)-2-(2′,6′-difluoro[1,1′-biphenyl]-2-yl)cyclopropane-1-carbonyl]pyrrolidin-3-yl}-1-fluoromethanesulfonamide and N-{(3S)-1-[(1S,2S)-2-(2′,6′-difluoro[1,1′-biphenyl]-2-yl)cyclopropane-1-carbonyl]pyrrolidin-3-yl}-1-fluoromethanesulfonamide], 106%.
For `CCS(=O)(=O)NCC1CCN1C(=O)C1CC1c1ccccc1-c1c(F)cccc1F` (racemic) [Example 203, a mixture of rac-N-({(2R)-1-[(1R,2R)-2-(2′,6′-difluoro[1,1′-biphenyl]-2-yl)cyclopropane-1-carbonyl]azetidin-2-yl}methyl)ethanesulfonamide and rac-N-({(2S)-1-[(1R,2R)-2-(2′,6′-difluoro[1,1′-biphenyl]-2-yl)cyclopropane-1-carbonyl]azetidin-2-yl}methyl)ethanesulfonamide], the “OX2R agonist activity (3 μM, %)” value is reported as 94%.
Consider `CN(C)S(=O)(=O)NCC1CCN1C(=O)C1CC1c1ccccc1-c1c(F)cccc1F` (racemic) [Example 204, a mixture of rac-N′-({(2R)-1-[(1R,2R)-2-(2′,6′-difluoro[1,1′-biphenyl]-2-yl)cyclopropane-1-carbonyl]azetidin-2-yl}methyl)-N,N-dimethylsulfuric diamide and rac-N′-({(2S)-1-[(1R,2R)-2-(2′,6′-difluoro[1,1′-biphenyl]-2-yl)cyclopropane-1-carbonyl]azetidin-2-yl}methyl)-N,N-dimethysulfuric diamide], for which the “OX2R agonist activity (3 μM, %)” value worked out at 96%.
Regarding `O=C(C1CC1c1ccccc1-c1c(F)cccc1F)N1CCC1CNS(=O)(=O)C1CC1` (racemic) [Example 205, a mixture of rac-N-({(2R)-1-[(1R,2R)-2-(2′,6′-difluoro[1,1′-biphenyl]-2-yl)cyclopropane-1-carbonyl]azetidin-2-yl}methyl)cyclopropanesulfonamide and rac-N-({(2S)-1-[(1R,2R)-2-(2′,6′-difluoro[1,1′-biphenyl]-2-yl)cyclopropane-1-carbonyl]azetidin-2-yl}methyl)cyclopropanesulfonamide], the “OX2R agonist activity (3 μM, %)” value is recorded as 78%.
For the compound `CS(=O)(=O)NC1CCCN(C(=O)C2CC2c2cnccc2-c2c(F)cccc2F)CC1` (racemic) [Example 206, a mixture of rac-N-[(4R)-1-{(1R,2R)-2-[4-(2,6-difluorophenyl)pyridin-3-yl]cyclopropane-1-carbonyl}azepan-4-yl]methanesulfonamide and rac-N-[(4S)-1-{(1R,2R)-2-[4-(2,6-difluorophenyl)pyridin-3-yl]cyclopropane-1-carbonyl}azepan-4-yl]methanesulfonamide], the “OX2R agonist activity (3 μM, %)” value came to 87%.
The result for `CS(=O)(=O)NC1CCN(C(=O)C2CC2c2ccc(F)cc2-c2ccccc2F)C1` (racemic) [Example 208, a mixture of rac-N-{(3R)-1-[(1R,2R)-2-(2′,5-difluoro[1,1′-biphenyl]-2-yl)cyclopropane-1-carbonyl]pyrrolidin-3-yl}methanesulfonamide and rac-N-{(3S)-1-[(1R,2R)-2-(2′,5-difluoro[1,1′-biphenyl]-2-yl)cyclopropane-1-carbonyl]pyrrolidin-3-yl}methanesulfonamide] reads 78%; that for `Cc1ccc(C2CC2C(=O)N2CCC(NS(C)(=O)=O)C2)c(-c2ccccc2F)c1` (racemic) [Example 209, a mixture of rac-N-{(3R)-1-[(1R,2R)-2-(2′-fluoro-5-methyl[1,1′-biphenyl]-2-yl)cyclopropane-1-carbonyl]pyrrolidin-3-yl}methanesulfonamide and rac-N-{(3S)-1-[(1R,2R)-2-(2′-fluoro-5-methyl[1,1′-biphenyl]-2-yl)cyclopropane-1-carbonyl]pyrrolidin-3-yl}methanesulfonamide], 95%.
The result for `CS(=O)(=O)NC1CCN(C(=O)C2CC2c2ccccc2-c2c(F)cccc2F)CCC1(F)F` (racemic) [Example 212, a mixture of rac-N-{(4R)-1-[(1R,2R)-2-(2′,6′-difluoro[1,1′-biphenyl]-2-yl)cyclopropane-1-carbonyl]-5,5-difluoroazepan-4-yl}methanesulfonamide and rac-N-{(4S)-1-[(1R,2R)-2-(2′,6′-difluoro[1,1′-biphenyl]-2-yl)cyclopropane-1-carbonyl]-5,5-difluoroazepan-4-yl}methanesulfonamide] reads 91%.
The figure for `CC1CN(C(=O)C2CC2c2ccccc2-c2c(F)cccc2F)CCCC1NS(C)(=O)=O` (racemic) [Example 217] is 83%.
As to `CS(=O)(=O)NC1COCCN(C(=O)C2CC2c2ccccc2-c2c(F)cccc2F)C1` (racemic) [Example 219, a mixture of rac-N-{(6R)-1-[(1R,2R)-2-(2′,6′-difluoro[1,1′-biphenyl]-2-yl)cyclopropane-1-carbonyl]-1,4-oxazepan-6-yl}methanesulfonamide and rac-N-{(6S)-4-[(1R,2R)-2-(2′,6′-difluoro[1,1′-biphenyl]-2-yl)cyclopropane-1-carbonyl]-1,4-oxazepan-6-yl}methanesulfonamide], the “OX2R agonist activity (3 μM, %)” value was 96%.
The figure for `CS(=O)(=O)NC1CCCN(C(=O)C2CC2c2sccc2-c2ccccc2F)CC1` (racemic) [Example 220, a mixture of rac-N-[(4R)-1-{(1R,2R)-2-[3-(2-fluorophenyl)thiophen-2-yl]cyclopropane-1-carbonyl}azepan-4-yl]methanesulfonamide and rac-N-[(4S)-1-{(1R,2R)-2-[3-(2-fluorophenyl)thiophen-2-yl]cyclopropane-1-carbonyl}azepan-4-yl]methanesulfonamide] is 79%.
